{
  "source": "patent US8129409B2",
  "about": "“Piperidine derivatives and cosmetic compositions thereof” (L'Oreal, priority 2004, dated 2012)",
  "key": {"[1]": {"system": "human striated muscle cells innervated with explants of rat embryonic rachidian ganglia and spinal cord", "experiment": "nerve/muscle coculture model, muscle fibre contractions", "type": "cell-based", "protocol": "The compound of Example 1 was tested on a model of nerve/muscle coculture, which makes it possible to recreate a motor arc by innervating human striated muscle cells with explants of rat embryonic rachidian ganglia and spinal cord.\nHuman muscle cells, obtained from samples of striated muscle from healthy donors, are inoculated into wells of cross section 1.8 cm^2 (24-well culture dishes). After culturing for ten days, these cells form a monolayer and fuse. At this stage, explants of embryonic spinal cord from a 13 day-old rat, containing the rachidian ganglia, are placed on the culture.\nThe growth of the neurites is visible beyond the spinal cord explant after one day of culture. The first contractions of the muscle fibres are observed after five to six days of coculture, and after three weeks all the muscle fibres in the region of the explants contract.\nThe cocultures are used after 21 days, when the muscle fibres are striated and contain mature differentiated neuromuscular junctions.\nA muscle fibre showing regular contractions (at least 60 contractions per minute) is then selected from three different culture wells and the number of contractions is counted over 30 seconds. The test compound, diluted in DMSO, is then incubated for 60 seconds in these wells, at a concentration of 10^−5 M. At the end of incubation, the number of contractions is again counted over 30 seconds. […]"}, "[2]": {"experiment": "anti-wrinkle activity in vivo", "details": "no details given"}},
  "data": [
    {"compound": "c1ccc(CCCC2CCN(CCCc3ccccc3)CC2)cc1", "note": "[Example 1, 1,4-bis(3-phenylpropyl)piperidine]", "values": [
      {"measurement": "contractions of the fibre as % of its contractions before addition of the compound", "setting": "[1]; 10^−5 M, diluted in DMSO, 60 seconds incubation (one minute after adding), contractions counted over 30 seconds, triplicate", "value": 55, "unit": "%"}
    ]},
    {"compound": "CN1C(=O)CN=C(c2ccccc2)c2cc(Cl)ccc21", "note": "[diazepam]", "values": [
      {"measurement": "anti-wrinkle activity in vivo", "setting": "[2]", "value": "demonstrated in vivo"},
      {"measurement": "effect on muscle fibre contractions in the nerve/muscle coculture model", "setting": "[1]; as demonstrated by the Applicant, no concentration given", "value": "inhibited muscle fibre contractions"}
    ]}
  ]
}
